Results: US10851073B2, “Protein tyrosine phosphatase inhibitors and methods of use thereof” (Calico Life Sciences LLC, priority 2019, dated 2020)

Assays:
[1] = target: T1, His tagged PTPN2 (TC45) protein (Homo sapiens, UniProt P17706); assay: Mobility shift assay used to determine potency of PTPN2 inhibitors; assay type: biochemical; details: enzyme 0.5 nM, substrate 2 μM; read-out: PTPN2 MSA IC50
T1 construct: made in house
T1 sequence (P17706 with tags, fused parts or gaps isoform P17706-2): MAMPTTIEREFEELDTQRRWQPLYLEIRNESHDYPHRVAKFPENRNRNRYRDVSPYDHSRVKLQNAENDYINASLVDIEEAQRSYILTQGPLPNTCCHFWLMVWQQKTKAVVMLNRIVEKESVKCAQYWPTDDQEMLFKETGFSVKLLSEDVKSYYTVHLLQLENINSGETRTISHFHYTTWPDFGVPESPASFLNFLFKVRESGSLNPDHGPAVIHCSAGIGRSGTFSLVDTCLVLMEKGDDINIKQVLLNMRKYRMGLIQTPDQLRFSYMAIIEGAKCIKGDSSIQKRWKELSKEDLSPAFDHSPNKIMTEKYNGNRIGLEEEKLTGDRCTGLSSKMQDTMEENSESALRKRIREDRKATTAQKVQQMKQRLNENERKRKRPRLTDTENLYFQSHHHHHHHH
Experimental: Example 227: Mobility Shift Assay Used to Determine Potency of PTPN2 Inhibitors
Compound activity was determined using in house His tagged PTPN2 (TC45) protein (SEQ ID NO: 1) in an in vitro enzymatic reaction. The enzymatic assay used to determine activity was a mobility shift assay using a LabChip EZ Reader by Caliper Life Sciences. The enzymatic reaction was carried out in assay buffer (50 mM HEPES pH 7.5, 1 mM EGTA, 10 mM EDTA, 0.01% Tween® 20, and 2 mM DTT). The compounds were dispensed on a white 384 well ProxiPlate™ (PerkinElmer Catalog #6008289) plate using the Labcyte Echo at varying concentrations (12 point, 1:3 dilution). The enzyme (at 0.5 nM) was incubated with compound for 10 minutes at room temperature. Then the substrate (phosphorylated insulin receptor probe sequence: ((OG488)-(NH—CH2—CH2—O—CH2—CH2—O—CH2—CO)-T-R-D-I-(PY)-E-T-D-Y-Y-R-K-K-NH2) (SEQ ID NO: 2) was added at 2 μM to the plates and incubated for another 10 minutes at room temperature. Finally, a quench solution (water and 4-bromo-3-(2-oxo-2-propoxyethoxy)-5-(3-{[1-(phenylmethanesulfonyl)piperidin-4-yl]amino}phenyl)thiophene-2-carboxylic acid) was added to the plates, which were then run on the EZ Reader (excitation 488 nm, emission 530 nm) to measure % conversion (the amount of phosphorylated substrate which was de-phosphorylated by PTPN2). […] The % inhibition was then used to calculate the IC50 values.

[2] = target: T2, His tagged full-length PTPN1 protein (Homo sapiens, UniProt P18031); assay: Mobility shift assay (MSA) used to determine potency of PTPN1 inhibitors; assay type: biochemical; details: enzyme 0.5 nM, substrate 2 μM
T2 construct: made in house
T2 sequence (P18031 with tags, fused parts or gaps): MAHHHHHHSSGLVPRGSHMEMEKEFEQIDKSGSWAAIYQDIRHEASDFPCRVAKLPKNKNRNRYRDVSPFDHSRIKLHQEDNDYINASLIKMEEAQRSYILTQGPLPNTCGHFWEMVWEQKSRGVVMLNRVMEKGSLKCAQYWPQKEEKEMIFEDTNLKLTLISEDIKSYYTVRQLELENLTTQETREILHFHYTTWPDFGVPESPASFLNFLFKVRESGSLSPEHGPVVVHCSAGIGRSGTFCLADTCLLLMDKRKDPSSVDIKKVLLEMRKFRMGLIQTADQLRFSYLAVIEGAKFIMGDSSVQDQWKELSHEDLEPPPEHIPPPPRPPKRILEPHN
Experimental: Example 228: Mobility Shift Assay (MSA) Used to Determine Potency of PTPN1 Inhibitors
Compound activity was determined using in house His tagged full-length PTPN1 protein (SEQ ID NO: 3) in an in vitro enzymatic reaction. The enzymatic assay used to determine activity is a mobility shift assay using a LabChip EZ Reader by Caliper Life Sciences. The enzymatic reaction was carried out in assay buffer (50 mM HEPES pH 7.5, 1 mM EGTA, 10 mM EDTA, 0.01% Tween® 20, and 2 mM DTT). The compounds were dispensed on a white 384 well ProxiPlate™ (PerkinElmer Cat^# 6008289) plate using a Labcyte Echo® liquid handler at varying concentrations (12 point, 1:3 dilution). The enzyme (at 0.5 nM) was incubated with compound for 10 minutes at room temperature. Then the substrate (phosphorylated insulin receptor probe sequence: ((OG488)-(NH—CH2—CH2—O—CH2—CH2—O—CH2—CO)-T-R-D-I-(PY)-E-T-D-Y-Y-R-K-K-NH2) (SEQ ID NO: 2) was added at 2 μM to the plates and incubated for another 10 minutes at room temperature. Finally, a quench solution (water and 4-bromo-3-(2-oxo-2-propoxyethoxy)-5-(3-{[1-(phenylmethanesulfonyl)piperidin-4-yl]amino}phenyl)thiophene-2-carboxylic acid) was added to the plates, which were then run on the EZ Reader (excitation 488 nm, emission 530 nm) to measure % conversion (the amount of phosphorylated substrate which was de-phosphorylated by PTPN1). […] The % inhibition was then used to calculate the IC50 values.

Compound	IC50 [1]	IC50 [2]
O=C1CN(c2c(O)cc3c(c2F)CC(NCCN2CCC2)CC3)S(=O)(=O)N1 (centres unmarked) [Compound 115, 5-(7-{[2-(azetidin-1-yl)ethyl]amino}-1-fluoro-3-hydroxy-5,6,7,8-tetrahydronaphthalen-2-yl)-1λ^6,2,5-thiadiazolidine-1,1,3-trione]	0.01 to 0.1 µM	0.01 to 0.1 µM
COCC(C)(C)CCNC1CCc2cc(O)c(N3CC(=O)NS3(=O)=O)c(F)c2C1 (centres unmarked) [Compound 121, 5-{1-fluoro-3-hydroxy-7-[(4-methoxy-3,3-dimethylbutyl)amino]-5,6,7,8-tetrahydronaphthalen-2-yl}-1λ^6,2,5-thiadiazolidine-1,1,3-trione]	0.001 to 0.01 µM	0.01 to 0.1 µM
CC(F)(F)CNC1CCc2cc(O)c(N3CC(=O)NS3(=O)=O)c(F)c2C1 (centres unmarked) [Compound 132, 5-{7-[(2,2-difluoropropyl)amino]-1-fluoro-3-hydroxy-5,6,7,8-tetrahydronaphthalen-2-yl}-1λ^6,2,5-thiadiazolidine-1,1,3-trione]	0.01 to 0.1 µM	0.01 to 0.1 µM
O=C1CN(c2c(O)cc3c(c2F)CC(NCCn2cccn2)CC3)S(=O)(=O)N1 (centres unmarked) [Compound 141, 5-(1-fluoro-3-hydroxy-7-{[2-(1H-pyrazol-1-yl)ethyl]amino}-5,6,7,8-tetrahydronaphthalen-2-yl)-1λ^6,2,5-thiadiazolidine-1,1,3-trione]	0.001 to 0.01 µM	0.01 to 0.1 µM
O=C1CN(c2c(O)cc3c(c2F)CC(OC(=O)Nc2ccccc2)CC3)S(=O)(=O)N1 (centres unmarked) [Compound 149, 8-fluoro-6-hydroxy-7-(1,1,4-trioxo-1λ^6,2,5-thiadiazolidin-2-yl)-1,2,3,4-tetrahydronaphthalen-2-yl Phenylcarbamate]	0.001 to 0.01 µM	0.01 to 0.1 µM
CC(C)CCN(Cc1ccccn1)C1CCc2cc(O)c(N3CC(=O)NS3(=O)=O)c(F)c2C1 (centres unmarked) [Compound 154, 5-(1-fluoro-3-hydroxy-7-{(3-methylbutyl)[(pyridin-2-yl)methyl]amino}-5,6,7,8-tetrahydronaphthalen-2-yl)-1λ^6,2,5-thiadiazolidine-1,1,3-trione]	0.001 to 0.01 µM	0.01 to 0.1 µM
CC(C)CCN(CCc1ccccn1)C1CCc2cc(O)c(N3CC(=O)NS3(=O)=O)c(F)c2C1 (centres unmarked) [Compound 167, 5-(1-fluoro-3-hydroxy-7-{(3-methylbutyl)[2-(pyridin-2-yl)ethyl]amino}-5,6,7,8-tetrahydronaphthalen-2-yl)-1λ^6,2,5-thiadiazolidine-1,1,3-trione]	0.001 to 0.01 µM	0.01 to 0.1 µM
CC(O)CCOC(=O)N1CCc2cc(O)c(N3CC(=O)NS3(=O)=O)c(F)c2C1 (centres unmarked) [Compound 171, 3-hydroxybutyl 8-fluoro-6-hydroxy-7-(1,1,4-trioxo-1λ^6,2,5-thiadiazolidin-2-yl)-3,4-dihydroisoquinoline-2(1H)-carboxylate]	0.001 to 0.01 µM	0.001 to 0.01 µM
CC(C)[C@@H]1CN(C2CCc3cc(O)c(N4CC(=O)NS4(=O)=O)c(F)c3C2)CCO1 (stereo partly drawn) [Compound 182, 5-{1-fluoro-3-hydroxy-7-[(2R)-2-(propan-2-yl)morpholin-4-yl]-5,6,7,8-tetrahydronaphthalen-2-yl}-1λ^6,2,5-thiadiazolidine-1,1,3-trione]	0.01 to 0.1 µM	0.01 to 0.1 µM
O=C1CN(c2c(O)cc3c(c2F)CN(CC2CCCN2)CC3)S(=O)(=O)N1 (centres unmarked) [Compound 183, 5-{8-fluoro-6-hydroxy-2-[(pyrrolidin-2-yl)methyl]-1,2,3,4-tetrahydroisoquinolin-7-yl}-1λ^6,2,5-thiadiazolidine-1,1,3-trione]	> 0.1 µM	> 0.1 µM
CC(C)OCCNC1CCc2cc(O)c(N3CC(=O)NS3(=O)=O)c(F)c2C1 (centres unmarked) [Compound 186, 5-[1-fluoro-3-hydroxy-7-({2-[(propan-2-yl)oxy]ethyl}amino)-5,6,7,8-tetrahydronaphthalen-2-yl]-1λ^6,2,5-thiadiazolidine-1,1,3-trione]	0.01 to 0.1 µM	0.01 to 0.1 µM
CC(C)CC(=N)NC1CCc2cc(O)c(N3CC(=O)NS3(=O)=O)c(F)c2C1 (centres unmarked) [Compound 195, N-[8-fluoro-6-hydroxy-7-(1,1,4-trioxo-1λ^6,2,5-thiadiazolidin-2-yl)-1,2,3,4-tetrahydronaphthalen-2-yl]-3-methylbutanimidamide]	0.01 to 0.1 µM	0.01 to 0.1 µM
O=C1CN(c2c(O)cc3c(c2F)CN(CC(O)C2CCCCC2)CC3)S(=O)(=O)N1 (centres unmarked) [Compound 215, 5-[2-(2-cyclohexyl-2-hydroxyethyl)-8-fluoro-6-hydroxy-1,2,3,4-tetrahydroisoquinolin-7-yl]-1λ^6,2,5-thiadiazolidine-1,1,3-trione]	> 0.1 µM	> 0.1 µM
O=C1CN(c2c(O)cc3c(c2F)CN(CC2CC4CCC2O4)CC3)S(=O)(=O)N1 (centres unmarked) [Compound 222, 5-{8-fluoro-6-hydroxy-2-[(7-oxabicyclo[2.2.1]heptan-2-yl)methyl]-1,2,3,4-tetrahydroisoquinolin-7-yl}-1λ^6,2,5-thiadiazolidine-1,1,3-trione]	0.01 to 0.1 µM	0.01 to 0.1 µM
O=C1CN(c2c(O)cc3c(c2F)CN(CCC24CCC(CC2)C4)CC3)S(=O)(=O)N1 [Compound 239, 5-{2-[2-(bicyclo[2.2.1]heptan-1-yl)ethyl]-8-fluoro-6-hydroxy-1,2,3,4-tetrahydroisoquinolin-7-yl}-1λ^6,2,5-thiadiazolidine-1,1,3-trione]	0.001 to 0.01 µM	0.001 to 0.01 µM
C=CCC1(N)CCc2cc(O)c(N3CC(=O)NS3(=O)=O)c(F)c2C1 (centres unmarked) [Compound 240, 5-[7-amino-1-fluoro-3-hydroxy-7-(prop-2-en-1-yl)-5,6,7,8-tetrahydronaphthalen-2-yl]-1λ^6,2,5-thiadiazolidine-1,1,3-trione]	0.01 to 0.1 µM	> 0.1 µM
CC(O)CCN1CCc2cc(O)c(N3CC(=O)NS3(=O)=O)c(F)c2C1 (centres unmarked) [Compound 242, 5-[8-fluoro-6-hydroxy-2-(3-hydroxybutyl)-1,2,3,4-tetrahydroisoquinolin-7-yl]-1λ^6,2,5-thiadiazolidine-1,1,3-trione]	0.01 to 0.1 µM	0.01 to 0.1 µM
O=C1CN(c2c(O)cc3c(c2F)CN(C(=O)NCC2CCOC2)CC3)S(=O)(=O)N1 (centres unmarked) [Compound 270, 8-fluoro-6-hydroxy-N-[(oxolan-3-yl)methyl]-7-(1,1,4-trioxo-1λ^6,2,5-thiadiazolidin-2-yl)-3,4-dihydroisoquinoline-2(1H)-carboxamide]	0.01 to 0.1 µM	0.01 to 0.1 µM
O=C1CN(c2c(O)cc3c(c2F)CC(CNCCCC2CC2)C3)S(=O)(=O)N1 (centres unmarked) [Compound 274, 5-(2-{[(3-cyclopropylpropyl)amino]methyl}-4-fluoro-6-hydroxy-2,3-dihydro-1H-inden-5-yl)-1λ^6,2,5-thiadiazolidine-1,1,3-trione]	0.001 to 0.01 µM	0.001 to 0.01 µM
